Data taken from patent US11530244B2, “Cyclic polypeptides for PCSK9 inhibition” (priority 2018, dated 2022).
Starred links: 1 amine or outer side, 2 acyl side, 3 side chain; linkers in the order of their positions; H or OH if unused. Positions of bridges follow the written chain, without caps; N, C: chain ends. Non-standard residues stand in square brackets, D forms with d. Residues, ends and D or L forms follow the SMILES beside them. Phe(3-CH2NH2) = O=C([C@H](Cc1cccc(CN[*:3])c1)N[*:1])[*:2]; Phe(4-COOH) = N[C@@H](Cc1ccc(C(=O)O)cc1)C(=O)O; Trp(5-F) = N[C@@H](Cc1c[nH]c2ccc(F)cc12)C(=O)O; Trp(6-F) = N[C@@H](Cc1c[nH]c2cc(F)ccc12)C(=O)O; Phe(4-CH2NH2) = NCc1ccc(C[C@H](N)C(=O)O)cc1; Pro(trans-4-F) = O=C(O)[C@@H]1C[C@@H](F)CN1; Asp(3,3-Me2) = CC(C)(C(=O)O)[C@H](N)C(=O)O; mXylylene(5-F) = Fc1cc(C[*:1])cc(C[*:2])c1; Pro(cis-4-F) = O=C(O)[C@@H]1C[C@H](F)CN1; X4 = O=C(CCSCc1cccc(CSCCN[*:1])c1)[*:2]; mXylylene = c1cc(C[*:1])cc(C[*:2])c1; d(aThr) = C[C@@H](O)[C@@H](N)C(=O)O; aThr = C[C@H](O)[C@H](N)C(=O)O; αMeP = C[C@@]1(C(=O)O)CCCN1; Ahx = NCCCCCC(=O)O; Mpa = O=C(O)CCS

Legend:
[1] = target: human PCSK9 / human LDLR EGFa domain interaction (Homo sapiens (Human), UniProt Q8NBP7); test: TR-FRET assay of inhibition of the PCSK9-LDLR protein-protein interaction; format: binding; conditions: TR-FRET, 20 nM human PCSK9, 20 nM human LDLR EGFa domain, 2 hours room temperature; read-out: IC50
Procedure, shortened: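 Half-maximal inhibitory concentrations came from 4-parameter fits of dose-response data. Proteins: biotinylated PCSK9, His-tagged LDLR EGFa, 20 nM each; labels 5 nM; 2 h, room temperature; buffer 50 mM HEPES, 150 mM NaCl, 5 mM CaCl2.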

PCSK9 = PCSK9 (Homo sapiens (Human), UniProt Q8NBP7); test: PCSK9 Alexa FRET Standard assay (displacement of AlexaFluor647 tagged cyclic peptide Reagent A); format: binding; conditions: PCSK9 Alexa FRET Standard assay, 0.5 nM PCSK9, 20 nM AF cyclic peptide Reagent A; read-out: IC50
Procedure, shortened: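 TR-FRET displacement: 0.5 nM biotinylated PCSK9 with 1.25 nM Strep-Eu and 20 nM AlexaFluor-tagged cyclic peptide (final) in 50 mM HEPES pH 7.4, 0.15 M NaCl, 5 mM CaCl2, 0.01% BSA, 0.01% P20, ≥2 h at room temperature. IC50 from sigmoidal fit, converted to Ki via peptide KD; falling Eu counts flagged false positives.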

Chain of human PCSK9 / human LDLR EGFa domain interaction (Q8NBP7 153-692): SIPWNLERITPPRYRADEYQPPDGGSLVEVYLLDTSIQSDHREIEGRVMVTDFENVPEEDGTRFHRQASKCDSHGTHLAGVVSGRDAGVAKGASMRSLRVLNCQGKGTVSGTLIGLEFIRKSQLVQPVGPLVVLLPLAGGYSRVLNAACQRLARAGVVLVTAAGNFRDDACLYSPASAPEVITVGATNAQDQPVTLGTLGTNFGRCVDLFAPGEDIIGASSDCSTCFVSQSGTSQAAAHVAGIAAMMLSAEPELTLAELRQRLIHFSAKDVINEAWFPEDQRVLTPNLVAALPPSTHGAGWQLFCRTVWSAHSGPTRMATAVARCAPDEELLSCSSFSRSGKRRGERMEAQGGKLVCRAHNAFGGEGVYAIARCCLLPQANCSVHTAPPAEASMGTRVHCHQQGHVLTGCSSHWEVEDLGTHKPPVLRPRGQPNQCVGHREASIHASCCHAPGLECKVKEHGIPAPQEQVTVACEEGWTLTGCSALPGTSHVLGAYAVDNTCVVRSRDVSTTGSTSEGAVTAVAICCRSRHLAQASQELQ
Chain of human PCSK9 / human LDLR EGFa domain interaction (Q8NBP7 31-152 partner): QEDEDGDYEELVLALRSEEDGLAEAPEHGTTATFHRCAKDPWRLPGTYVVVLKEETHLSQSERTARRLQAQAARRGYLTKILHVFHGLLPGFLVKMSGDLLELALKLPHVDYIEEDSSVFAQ
Chain of PCSK9 (Q8NBP7 153-692): as the sequence (Q8NBP7 153-692) above

Row | IC50 [1] [µM] | IC50 (PCSK9) [µM] | SMILES
1 | 0.0001 to 0.1 | 0.00011 to 0.1 | COc1ccc(C[C@@H]2NC(=O)[C@H]([C@@H](C)O)NC(=O)[C@@H]3C[C@H](F)CN3C(=O)[C@H](Cc3c[nH]c4ccc(F)cc34)NC(=O)[C@H](Cc3c[nH]c4ccc(F)cc34)NC(=O)[C@@H](C)NC(=O)[C@H](CCCCN)NC(=O)[C@@H](NC(C)=O)CC(=O)NCc3ccc(cc3)C[C@@H](C(N)=O)NC(=O)[C@]3(C)CCCN3C2=O)cc1 [Compound 066] (Ac-DK[dA][Trp(5-F)][Trp(5-F)][Pro(cis-4-F)]TY(Me)[αMeP][Phe(4-CH2NH2)]-NH2; lactam 1-10)
2 | 0.1 to 1 | 0.1 to 1 | COc1ccc(C[C@@H]2NC(=O)[C@@H]3CCCCCCO[C@H]4C[C@@H](C(=O)N3)N(C4)C(=O)[C@H](Cc3c[nH]c4ccc(F)cc34)NC(=O)[C@H](Cc3c[nH]c4ccc(F)cc34)NC(=O)[C@@H](C)NC(=O)[C@H](CCCCN)NC(=O)CCSCc3cccc(c3)CSC[C@@H](C(N)=O)NC(=O)[C@]3(C)CCCN3C2=O)cc1 [Compound 506]
3 | 0.1 to 1 | 1 to 12.1 | C[C@H]1NC(=O)[C@H](Cc2cnc[nH]2)NC(=O)[C@H](CC(=O)O)NC(=O)[C@H](Cc2c[nH]c3ccc(F)cc23)NC(=O)[C@H](Cc2c[nH]c3ccc(F)cc23)NC(=O)CNC(=O)[C@H](CCCCN)NC(=O)CCSCc2cccc(c2)CSC[C@@H](C(N)=O)NC(=O)[C@]2(C)CCCN2C1=O [Compound 319] ([Mpa]KG[Trp(5-F)][Trp(5-F)]DH[dA][αMeP]C-NH2; linker 1-10 via mXylylene)

The remaining lines, values behind:

Row | SMILES | IC50 [1] [µM] | IC50 (PCSK9) [µM]
4 | COc1ccc(C[C@@H]2NC(=O)[C@H]([C@H](C)O)NC(=O)[C@@H]3C[C@H](F)CN3C(=O)[C@H](Cc3c[nH]c4cc(F)ccc34)NC(=O)[C@H](Cc3c[nH]c4ccc(F)cc34)NC(=O)[C@@H](C)NC(=O)CCCCCNC(=O)c3ccc(cc3)C[C@@H](C(N)=O)NC(=O)[C@]3(C)CCCN3C2=O)cc1 [Compound 057] ([Ahx][dA][Trp(5-F)][Trp(6-F)][Pro(cis-4-F)][aThr]Y(Me)[αMeP][Phe(4-COOH)]-NH2; lactam N-9) | 1 to 12.1 | 21 to 50
5 | COc1ccc(C[C@@H]2NC(=O)[C@@H]([C@@H](C)O)NC(=O)[C@H](CC(=O)O)NC(=O)[C@H](Cc3c[nH]c4ccc(F)cc34)NC(=O)[C@H](Cc3cccc(CN)c3)NC(=O)[C@@H](C)NC(=O)[C@H](C)NC(=O)CCSCc3cccc(c3)CSCCNC(=O)[C@]3(C)CCCN3C2=O)cc1 [Compound 384] (cyclo(A[dA][Phe(3-CH2NH2)][Trp(5-F)]D[d(aThr)]Y(Me)[αMeP][X4])) | 21 to 50 | 21 to 50
6 | CO[C@H](C)[C@@H]1NC(=O)[C@@H]2C[C@@H](F)CN2C(=O)[C@H](Cc2c[nH]c3ccc(F)cc23)NC(=O)[C@H](Cc2c[nH]c3ccc(F)cc23)NC(=O)CNC(=O)[C@H](CCCCN)NC(=O)CCSCc2cccc(c2)CSC[C@@H](C(N)=O)NC(=O)[C@]2(C)CCCN2C(=O)[C@H](Cc2ccc(O)cc2)NC1=O [Compound 059] ([Mpa]KG[Trp(5-F)][Trp(5-F)][Pro(trans-4-F)]T(Me)Y[αMeP]C-NH2; linker 1-10 via mXylylene) | 0.1 to 1 | 0.1 to 1
7 | C[C@H]1NC(=O)[C@H](C(C)(C)C(=O)O)NC(=O)[C@H](Cc2c[nH]c3ccc(F)cc23)NC(=O)[C@H](Cc2c[nH]c3ccc(F)cc23)NC(=O)CNC(=O)[C@H](CCCCN)NC(=O)CCSCc2cccc(c2)CSC[C@@H](C(N)=O)NC(=O)[C@]2(C)CCCN2C(=O)[C@H](Cc2ccc(O)cc2)NC1=O [Compound 055] ([Mpa]KG[Trp(5-F)][Trp(5-F)][Asp(3,3-Me2)][dA]Y[αMeP]C-NH2; linker 1-10 via mXylylene) | 1 to 12.1 | 21 to 50
8 | C[C@H]1NC(=O)[C@H](CCCCN)NC(=O)CCSCc2cc(F)cc(c2)CSC[C@@H](C(N)=O)NC(=O)[C@]2(C)CCCN2C(=O)[C@H](Cc2ccc(O)cc2)NC(=O)[C@H]([C@@H](C)O)NC(=O)[C@@H]2CCCN2C(=O)[C@H](Cc2c[nH]c3ccc(F)cc23)NC(=O)[C@H](Cc2c[nH]c3ccc(F)cc23)NC1=O [Compound 042] ([Mpa]K[dA][Trp(5-F)][Trp(5-F)]PTY[αMeP]C-NH2; linker 1-10 via mXylylene(5-F)) | 21 to 50 | 1 to 12.1
9 | CC(=O)N[C@H]1Cc2cn(nn2)-c2ccc(cc2)C[C@@H](C(N)=O)NC(=O)[C@]2(C)CCCN2C(=O)[C@H](Cc2ccc(O)cc2)NC(=O)[C@H](Cc2cnc[nH]2)NC(=O)[C@H](CC(=O)O)NC(=O)[C@H](Cc2c[nH]c3ccc(F)cc23)NC(=O)[C@H](Cc2c[nH]c3ccc(F)cc23)NC(=O)CNC(=O)[C@H](C)NC1=O [Compound 334] | 21 to 50 | 21 to 50
